Tests used:
Assay type in all cases: in vivo
[1] = tested on: flowering Arabidopsis thaliana plants; assay: visual fluorescent pollen transgene assay, crossover frequency in interval I2a (chromosome 2)
[2] = tested on: flowering Arabidopsis thaliana plants; assay: visual fluorescent pollen transgene assay, crossover frequency in interval I5d (chromosome 5)
Method: An aqueous solution of 3-aminobutanoic acid was applied to flowering Arabidopsis thaliana plants to enhance the frequency of meiotic recombination (crossovers). Silwet, a spraying adjuvant, was added to the 3-aminobutanoic acid solution at a volume/volume concentration of 0.01%. The solution was applied to the plants by foliar spraying until the plants were drenched. Several concentrations of 3-aminobutanoic acid were used including 0.1, 1, 7.5, 10, 12.5 and 15 mM. As a control, other plants (i.e., control plants) were treated with an aqueous 0.01% solution of Silwet by foliar spraying the solution on the plants until the plants were drenched.
(§1) Crossover frequencies were measured in pollen from treated and control plants using a visual fluorescent pollen transgene assay as described in Francis et al., Proc Natl Acad Sci USA. 2007; 104 (10): 3913-3918. In this assay pollen tetrads are scored as Parental Ditype (PD), Nonparental Ditype (NPD) or Tetratype (TT) and the frequency of those tetrad classes are used to calculate a genetic map distances in centiMorgans (cM) between reporter genes expressing fluorescent proteins. The genetic map distances between a pair of markers on chromosome 5 were compared between control plants and treated plants. The genetic interval between the two markers was designated as I5d. […] In Table 2, each experimental treatment is paired with data from control plants that were treated and scored together and designated with an experiment number in the first column.
An aqueous solution phenethyl isothiocyanate (IUPAC name: 2-isothiocyanatoethylbenzene) was applied to flowering Arabidopsis thaliana plants to enhance the frequency of meiotic recombination (crossovers). Phenethyl isothiocyanate in an aqueous solution containing 10% DMSO and 0.01% Silwet was applied by foliar spray until the plants were drenched. The phenethyl isothiocyanate was first dissolved in 100% DMSO and then diluted to its final concentration with 0.0.1% Silwet in water. Several concentrations of phenethyl isothiocyanate were used including 7.5, 10, and 12.5 mM. Control plants were treated with an aqueous solution of 10% DMSO and 0.01% Silwet by foliar spraying the solution on the control plants until the control plants were drenched.
as §1, with “4,” for “2,”
An aqueous solution BIX-01294 (IUPAC name: N-(1-benzylpiperidin-4-yl)-6,7-dimethoxy-2-(4-methyl-1,4-diazepan-1-yl) quinazolin-4-amine) was applied to flowering Arabidopsis thaliana plants to enhance the frequency of meiotic recombination (crossovers). BIX-01294 in an aqueous solution containing 10% DMSO and 0.01% Silwet was applied by foliar spray until the plants were drenched. The BIX-01294 was first dissolved in 100% DMSO and then diluted to its final concentration with 0.0.1% Silwet in water. Several concentrations of […] were used including 0.5, 1, 2.5 and 5 mM. Control plants were treated with an aqueous solution of 10% DMSO and 0.01% Silwet by foliar spraying the solution on the control plants until the control plants were drenched. […]

[3] = tested on: flowering Arabidopsis thaliana plants; assay: visual fluorescent pollen transgene assay, crossover frequency in interval I2b (chromosome 2); details: for NPD (Nonparental Ditype pollen tetrads) / PD (Parental Ditype pollen tetrads) / TT (Tetratype pollen tetrads) / genetic map distance: 0.01% Silwet in water, Exp.(1); for genetic map distance: Water control 5.11 cM
[4] = 2.5 mM foliar spray, Example 4, Exp.(1)
[5] = 7.5 mM foliar spray, Example 4, Exp.(1)
[6] = 10 mM foliar spray, Example 4, Exp.(1)
[7] = 0.1 mM foliar spray, 0.01% Silwet in water, Exp.(1)
[8] = 1 mM foliar spray, 0.01% Silwet in water, Exp.(2)
[9] = 10 mM foliar spray, 0.01% Silwet in water, Exp.(1)
[10] = 12.5 mM foliar spray, 0.01% Silwet in water, Exp.(3)
[11] = 15 mM foliar spray, 0.01% Silwet in water, Exp.(3)
[12] = 0.1 mM foliar spray, 10% DMSO and 0.01% Silwet, Exp.(1)
[13] = 0.5 mM foliar spray, 10% DMSO and 0.01% Silwet, Exp.(1)
[14] = 1 mM foliar spray, 10% DMSO and 0.01% Silwet, Exp.(1)
[15] = 2.5 mM foliar spray, 10% DMSO and 0.01% Silwet, Exp.(2)
[16] = 5 mM foliar spray, 10% DMSO and 0.01% Silwet, Exp.(2)
[17] = 1 mM foliar spray, 10% DMSO and 0.01% Silwet, Exp.(2)
[18] = 2.5 mM foliar spray, 10% DMSO and 0.01% Silwet, Exp.(3)
[19] = 5 mM foliar spray, 10% DMSO and 0.01% Silwet, Exp.(3)

For `CC(N)CC(=O)O` (stereo not shown) [3-aminobutanoic acid], the “NPD (Nonparental Ditype pollen tetrads)” value [1, 4] was 0, the “PD (Parental Ditype pollen tetrads)” value [1, 4] was 924 and the “TT (Tetratype pollen tetrads)” value [1, 4] was 67. For the same compound, the genetic map distance ([1]; 2.5 mM foliar spray, Example 4, Exp.(1), DMSO control 2.32 cM, p-value 0.021) was 3.38 cM, the “NPD (Nonparental Ditype pollen tetrads)” value [1, 5] was 0 and the “PD (Parental Ditype pollen tetrads)” value [1, 5] was 914. The “TT (Tetratype pollen tetrads)” value [1, 5] was 66, the genetic map distance ([1]; 7.5 mM foliar spray, Example 4, Exp.(1), DMSO control 2.32 cM, p-value 0.023) was 3.37 cM and the “NPD (Nonparental Ditype pollen tetrads)” value [1, 6] was 0. For the same compound, the “PD (Parental Ditype pollen tetrads)” value [1, 6] was 941, the “TT (Tetratype pollen tetrads)” value [1, 6] was 60 and the genetic map distance ([1]; 10 mM foliar spray, Example 4, Exp.(1), DMSO control 2.32 cM, p-value 0.090) was 3.00 cM. For the same compound, the “meiotic recombination in treated plants compared to control plants” value ([1]; Example 4, 2.5 and 7.5 mM, two of three concentrations (not 10 mM)) was “increased meiotic recombination”, the “NPD (Nonparental Ditype pollen tetrads)” value [2, 7] was 0 and the “PD (Parental Ditype pollen tetrads)” value [2, 7] was 926. The “TT (Tetratype pollen tetrads)” value [2, 7] was 178, the genetic map distance ([2]; 0.1 mM foliar spray, 0.01% Silwet in water, Exp.(1), Water control 5.89 cM, p-value 0.002) was 8.06 cM and the “NPD (Nonparental Ditype pollen tetrads)” value [2, 8] was 0. The “PD (Parental Ditype pollen tetrads)” value [2, 8] was 983, the “TT (Tetratype pollen tetrads)” value [2, 8] was 169 and the genetic map distance ([2]; 1 mM foliar spray, 0.01% Silwet in water, Exp.(2), Water control 5.37 cM, p-value 0.003) was 7.34 cM. The “NPD (Nonparental Ditype pollen tetrads)” value [2, 9] was 0, the “PD (Parental Ditype pollen tetrads)” value [2, 9] was 1092 and the “TT (Tetratype pollen tetrads)” value [2, 9] was 221. For the same compound, the genetic map distance ([2]; 10 mM foliar spray, 0.01% Silwet in water, Exp.(1), Water control 5.89 cM, p-value 0.000) was 8.42 cM, the “NPD (Nonparental Ditype pollen tetrads)” value [2, 10] was 4 and the “PD (Parental Ditype pollen tetrads)” value [2, 10] was 908. For the same compound, the “TT (Tetratype pollen tetrads)” value [2, 10] was 166, the genetic map distance ([2]; 12.5 mM foliar spray, 0.01% Silwet in water, Exp.(3), Water control 5.50 cM, p-value 0.000) was 8.81 cM and the “NPD (Nonparental Ditype pollen tetrads)” value [2, 11] was 2. The “PD (Parental Ditype pollen tetrads)” value [2, 11] was 849, the “TT (Tetratype pollen tetrads)” value [2, 11] was 160 and the genetic map distance ([2]; 15 mM foliar spray, 0.01% Silwet in water, Exp.(3), Water control 5.50 cM, p-value 0.000) was 8.51 cM. The “meiotic recombination in treated plants compared to controls” value ([2]; all concentrations (Table 2: 0.1, 1, 10, 12.5, 15 mM)) was “increase meiotic recombination”, the “NPD (Nonparental Ditype pollen tetrads)” value ([3]; 7.5 mM foliar spray) was 3 and the “PD (Parental Ditype pollen tetrads)” value ([3]; 7.5 mM foliar spray) was 867. For the same compound, the “TT (Tetratype pollen tetrads)” value ([3]; 7.5 mM foliar spray) was 128, the genetic map distance ([3]; 7.5 mM foliar spray, p-value 0.006) was 7.31 cM and the “NPD (Nonparental Ditype pollen tetrads)” value ([3]; 10 mM foliar spray) was 1. For the same compound, the “PD (Parental Ditype pollen tetrads)” value ([3]; 10 mM foliar spray) was 866, the “TT (Tetratype pollen tetrads)” value ([3]; 10 mM foliar spray) was 140 and the genetic map distance ([3]; 10 mM foliar spray, p-value 0.003) was 7.25 cM. The “NPD (Nonparental Ditype pollen tetrads)” value ([3]; 12.5 mM foliar spray) was 0, the “PD (Parental Ditype pollen tetrads)” value ([3]; 12.5 mM foliar spray) was 865 and the “TT (Tetratype pollen tetrads)” value ([3]; 12.5 mM foliar spray) was 155. For the same compound, the genetic map distance ([3]; 12.5 mM foliar spray, p-value 0.000) was 7.60 cM and the “meiotic recombination in treated plants compared to control plants” value ([3]; all three concentrations (7.5, 10, 12.5 mM)) was “increased meiotic recombination”.

With `COc1cc2nc(N3CCCN(C)CC3)nc(NC3CCN(Cc4ccccc4)CC3)c2cc1OC` [BIX-01294, N-(1-benzylpiperidin-4-yl)-6,7-dimethoxy-2-(4-methyl-1,4-diazepan-1-yl) quinazolin-4-amine] the “NPD (Nonparental Ditype pollen tetrads)” value [1, 12] was 0, the “PD (Parental Ditype pollen tetrads)” value [1, 12] was 908 and the “TT (Tetratype pollen tetrads)” value [1, 12] was 59. The genetic map distance ([1]; 0.1 mM foliar spray, 10% DMSO and 0.01% Silwet, Exp.(1), DMSO control 2.19 cM, p-value 0.046) was 3.05 cM, the “NPD (Nonparental Ditype pollen tetrads)” value [1, 13] was 0 and the “PD (Parental Ditype pollen tetrads)” value [1, 13] was 922. For the same compound, the “TT (Tetratype pollen tetrads)” value [1, 13] was 84, the genetic map distance ([1]; 0.5 mM foliar spray, 10% DMSO and 0.01% Silwet, Exp.(1), DMSO control 2.19 cM, p-value 0.000) was 4.17 cM and the “NPD (Nonparental Ditype pollen tetrads)” value [1, 14] was 0. For the same compound, the “PD (Parental Ditype pollen tetrads)” value [1, 14] was 988, the “TT (Tetratype pollen tetrads)” value [1, 14] was 99 and the genetic map distance ([1]; 1 mM foliar spray, 10% DMSO and 0.01% Silwet, Exp.(1), DMSO control 2.19 cM, p-value 0.000) was 4.55 cM. For the same compound, the “NPD (Nonparental Ditype pollen tetrads)” value [1, 15] was 0, the “PD (Parental Ditype pollen tetrads)” value [1, 15] was 777 and the “TT (Tetratype pollen tetrads)” value [1, 15] was 55. The genetic map distance ([1]; 2.5 mM foliar spray, 10% DMSO and 0.01% Silwet, Exp.(2), DMSO control 2.75 cM, p-value 0.163) was 3.31 cM, the “NPD (Nonparental Ditype pollen tetrads)” value [1, 16] was 0 and the “PD (Parental Ditype pollen tetrads)” value [1, 16] was 836. The “TT (Tetratype pollen tetrads)” value [1, 16] was 43, the genetic map distance ([1]; 5 mM foliar spray, 10% DMSO and 0.01% Silwet, Exp.(2), DMSO control 2.75 cM, p-value 0.725) was 2.45 cM and the “meiotic recombination in treated plants compared to control plants” value ([1]; 0.1, 0.5 and 1 mM, three of five concentrations (not 2.5, 5 mM)) was “increased meiotic recombination”. For the same compound, the “NPD (Nonparental Ditype pollen tetrads)” value [2, 13] was 1, the “PD (Parental Ditype pollen tetrads)” value [2, 13] was 936 and the “TT (Tetratype pollen tetrads)” value [2, 13] was 185. For the same compound, the genetic map distance ([2]; 0.5 mM foliar spray, 10% DMSO and 0.01% Silwet, Exp.(1), DMSO control 6.04 cM, p-value 0.001) was 8.51 cM, the “NPD (Nonparental Ditype pollen tetrads)” value [2, 17] was 0 and the “PD (Parental Ditype pollen tetrads)” value [2, 17] was 829. For the same compound, the “TT (Tetratype pollen tetrads)” value [2, 17] was 131, the genetic map distance ([2]; 1 mM foliar spray, 10% DMSO and 0.01% Silwet, Exp.(2), DMSO control 6.73 cM, p-value 0.454) was 6.82 cM and the “NPD (Nonparental Ditype pollen tetrads)” value [2, 18] was 5. For the same compound, the “PD (Parental Ditype pollen tetrads)” value [2, 18] was 888, the “TT (Tetratype pollen tetrads)” value [2, 18] was 169 and the genetic map distance ([2]; 2.5 mM foliar spray, 10% DMSO and 0.01% Silwet, Exp.(3), DMSO control 5.31 cM, p-value 0.000) was 9.37 cM. The “NPD (Nonparental Ditype pollen tetrads)” value [2, 19] was 4, the “PD (Parental Ditype pollen tetrads)” value [2, 19] was 938 and the “TT (Tetratype pollen tetrads)” value [2, 19] was 156. For the same compound, the genetic map distance ([2]; 5 mM foliar spray, 10% DMSO and 0.01% Silwet, Exp.(3), DMSO control 5.31 cM, p-value 0.001) was 8.20 cM and the “meiotic recombination in treated plants compared to controls” value ([2]; 0.5, 2.5 and 5 mM, three of four concentrations (not 1 mM)) was “increase meiotic recombination”.
